Reference: patent US20150126519A1, “ANTIBIOTIC COMPOUNDS AND COMPOSITIONS, AND METHODS FOR IDENTIFICATION THEREOF” (Fred Hutchinson Cancer Research Center, priority 2012, published 2015)
Entries after “also recorded” stand apart in the source; their conditions may differ.

How the values were obtained:
Chi hotspot activity = Chi hotspot activity in λ crosses; assay type: cell-based, E. coli
[1] = system: E. coli cells with RecBCD (V66) or AddAB (V3065); experiment: T4 gene 2 mutant-sensitization assay of derivatives (FIG. 11); conditions: FIG. 11, compound 50 μM
Description: Data are the mean and SEM of 4 wells in 2 independent experiments.
A fresh overnight culture of strain V66 in LB was diluted 1:100 into LB broth with 0.1% DMSO and grown with aeration at 37° C. to an OD650 of 0.05. Each well of a 96-well plate (Costar, Corning Inc.) was prepared by adding 10 μl of compound in 20% DMSO or the appropriate control (LB with 20% DMSO) and then 100 μl of the bacterial culture (containing about 2.5×10^6 cells) or uninoculated medium was added. The OD650 of each well was read on a VERSAmax microplate reader (Molecular Devices), and the plates were incubated without shaking at 37° C. After about 1 h the OD650 of the cultures was approximately 0.1, and 10 μl of a phage suspension containing 5×10^4 phage or 2.5 μg of chloramphenicol was added to the appropriate wells. The plates were incubated for approximately 20 h and the OD650 determined.

H. pylori AddAB = H. pylori AddAB (Helicobacter pylori, UniProt O25052+O26077); experiment: AddAB helicase (DNA unwinding) assay; assay type: biochemical; conditions: FIG. 10, compound 50 μM
Description: DNA unwinding by AddAB enzyme was assayed in the presence of compound (50 μM). Unwinding is indicated by the amount of ss DNA (heavy arrow).
Helicase assays measured the formation of ss DNA from 5′ [^32P] pBR322 X^+^F (or X^o control) DNA (0.1 nM molecules) linearized by digestion with HindIII enzyme. AddAB assays were in 25 mM Tris-acetate (pH 7.5), 2.0 mM Mg(OAc)2, 5 mM ATP, 1.5 μM SSB and used 1 nM enzyme. RecBCD assays used the same conditions but with 0.15 nM enzyme and without SSB. Compounds were added to the reaction mixture containing all the reagents except ATP; final DMSO concentration was 2.5% for each assay. Reactions were started by addition of ATP and were at 37° C. for 1 min (RecBCD) or 2 min (AddAB). Reactions were stopped by addition of ⅓ vol of stop buffer (2.5% SDS, 100 mM EDTA, 0.125% bromophenol blue, 0.125% xylene cyanol FF, and 10% Ficoll), and the products subjected to electrophoresis in a 1.25% agarose gel at 5 V/cm for 2.5 h in TAE buffer (40 mM Tris base, 20 mM acetic acid, 1 mM EDTA). Gels were dried under vacuum, and the products detected by autoradiography or analyzed with a Typhoon Trio PhosphorImager (GE Lifesciences) and ImageQuant TL software (Amersham). With RecBCD, this assay also detects cutting of DNA at the Chi site X^+^F, which produces a 1.46 kb fragment (Smith, G. R.; Kunes, S. M.; Schultz, D. W.; Taylor, A.; Triman, K. L., Cell 1981, 24, 429-436).

H. pylori AddAB, sequence (O25052 entry or part of it): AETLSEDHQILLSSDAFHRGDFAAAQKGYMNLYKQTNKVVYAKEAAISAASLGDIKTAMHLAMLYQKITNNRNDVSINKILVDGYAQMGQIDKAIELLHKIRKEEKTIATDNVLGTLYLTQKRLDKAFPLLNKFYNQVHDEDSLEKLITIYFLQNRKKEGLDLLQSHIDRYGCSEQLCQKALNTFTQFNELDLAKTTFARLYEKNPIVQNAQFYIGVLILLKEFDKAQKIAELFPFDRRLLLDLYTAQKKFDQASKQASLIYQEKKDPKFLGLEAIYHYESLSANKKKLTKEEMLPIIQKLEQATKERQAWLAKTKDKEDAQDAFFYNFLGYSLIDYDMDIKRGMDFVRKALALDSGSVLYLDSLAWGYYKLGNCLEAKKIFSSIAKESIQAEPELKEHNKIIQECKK
H. pylori AddAB, sequence (O26077 entry or part of it): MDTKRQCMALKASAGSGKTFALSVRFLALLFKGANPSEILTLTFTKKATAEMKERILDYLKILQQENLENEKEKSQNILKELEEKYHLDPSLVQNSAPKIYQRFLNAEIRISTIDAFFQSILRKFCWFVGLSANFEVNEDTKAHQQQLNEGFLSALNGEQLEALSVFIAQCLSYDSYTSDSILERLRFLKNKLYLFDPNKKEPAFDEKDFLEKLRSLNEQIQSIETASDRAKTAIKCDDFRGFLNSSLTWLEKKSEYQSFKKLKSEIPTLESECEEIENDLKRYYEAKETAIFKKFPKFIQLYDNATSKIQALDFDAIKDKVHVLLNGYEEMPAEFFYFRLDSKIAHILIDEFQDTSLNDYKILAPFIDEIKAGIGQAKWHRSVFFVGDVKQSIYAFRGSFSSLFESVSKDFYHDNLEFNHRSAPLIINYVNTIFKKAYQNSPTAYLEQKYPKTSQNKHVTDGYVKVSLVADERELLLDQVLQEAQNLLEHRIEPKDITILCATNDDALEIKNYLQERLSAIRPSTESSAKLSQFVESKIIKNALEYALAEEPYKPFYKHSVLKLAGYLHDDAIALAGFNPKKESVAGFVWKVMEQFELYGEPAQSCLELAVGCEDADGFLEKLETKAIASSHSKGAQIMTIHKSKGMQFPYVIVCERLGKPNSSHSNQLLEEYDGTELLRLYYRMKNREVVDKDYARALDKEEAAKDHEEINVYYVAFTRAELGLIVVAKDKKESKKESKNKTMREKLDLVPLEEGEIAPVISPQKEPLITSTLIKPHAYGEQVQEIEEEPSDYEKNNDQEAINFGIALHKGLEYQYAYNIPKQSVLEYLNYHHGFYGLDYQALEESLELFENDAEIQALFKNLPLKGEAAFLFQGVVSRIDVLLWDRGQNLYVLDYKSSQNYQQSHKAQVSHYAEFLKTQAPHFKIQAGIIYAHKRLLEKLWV

## CCn1cc(C(=O)O)c(=O)c2cnc(N3CCN(C(=S)Nc4cccc(C(F)(F)F)c4)CC3)nc21 [Compound 3]
Chi hotspot activity; experiment 1 (first value), without compound 5.1
  Chi hotspot activity at 200 μM compound: 2.5
Chi hotspot activity; experiment 2 (second value), without compound 4.9
  Chi hotspot activity at 200 μM compound: 2.1
Chi hotspot activity; about 5 in wild-type, 1 in recBCD null mutants
  Chi hotspot activity lowered to a value of: about 3
[1]
  growth of cells infected with T4 gene 2 mutant phage (in words): RecBCD-specific; also recorded: strongly inhibits in the presence of phage
H. pylori AddAB
  inhibition of AddAB unwinding (helicase) activity (in words): neither compound inhibited AddAB unwinding activity
